Experimental data from article PMC6008492, “Structure activity relationship studies on rhodanines and derived enethiol inhibitors of metallo-β-lactamases” (Bioorganic & Medicinal Chemistry, 2018).
Where two headings read alike, the source gives them in different places.

How the values were obtained:
[1] = molecular target: SPM-1 (Pseudomonas aeruginosa, UniProt Q8G9Q0); experiment: SPM-1 inhibition, fluorogenic cephalosporin (FC5) hydrolysis; assay type: biochemical; conditions: for remaining activity at 100 µM: read-out: % Residual activity versus SPM-1
SPM-1, sequence (Q8G9Q0 entry or part of it): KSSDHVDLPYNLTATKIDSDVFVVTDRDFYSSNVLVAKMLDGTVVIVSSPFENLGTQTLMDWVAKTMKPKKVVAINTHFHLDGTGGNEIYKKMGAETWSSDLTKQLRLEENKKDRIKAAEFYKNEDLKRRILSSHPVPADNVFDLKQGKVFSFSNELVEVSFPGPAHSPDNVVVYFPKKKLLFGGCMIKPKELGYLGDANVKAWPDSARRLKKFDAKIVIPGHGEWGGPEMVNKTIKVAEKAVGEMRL
Protocol: (§1) Inhibition analyses against bacterial MBLs and SBLs were performed as described previously.[22], [24], [26] Residual enzyme activities were determined for a range of inhibitor concentrations. Non-linear regression fitting of IC50 curves was carried out using a three-parameter dose–response curve in GraphPad Prism. Errors in IC50 values are expressed as: σ(logIC50)/logIC50×IC50
(§2) We first screened the inhibitors against a representative set of presently clinically important and other MBLs[22], comprising both Class B1 enzymes (NDM-1, New Delhi MBL-1; VIM-2, Verona integron–encoded MBL-2; BcII, Bacillus cereus II MBL; SPM-1, São Paulo MBL-1; IMP-1, imipenemase MBL-1) and the Class B2 MBL CphA (carbapenem hydrolysing MBL from Aeromonas hydrophila).[22] The latter MBL (CphA) only utilises one active site Zn(II) ion in catalysis, whilst the others normally use two Zn(II) ions.
Figure S5: IC50 curves for SPM-1 inhibition time courses. Residual activities were calculated from the
(§3) initial rate of FC5 hydrolysis after incubation of the enzyme with the inhibitor for 10 minutes. […]

[2] = molecular target: T1, IMP-1 (Serratia marcescens, UniProt P52699); experiment: IMP-1 inhibition, fluorogenic cephalosporin (FC5) hydrolysis; assay type: biochemical; conditions: for remaining activity at 100 µM: read-out: % Residual activity versus IMP-1
T1 construct: made in house
T1 sequence (P52699 19-246, looked up, species assumed): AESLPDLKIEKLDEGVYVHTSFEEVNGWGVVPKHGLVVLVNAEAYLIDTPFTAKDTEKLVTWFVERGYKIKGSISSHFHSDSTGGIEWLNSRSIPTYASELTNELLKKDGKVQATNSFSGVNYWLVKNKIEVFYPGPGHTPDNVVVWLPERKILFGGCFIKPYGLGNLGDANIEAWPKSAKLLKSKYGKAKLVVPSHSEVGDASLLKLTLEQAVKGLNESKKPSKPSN
Protocol: as §1, §2
Figure S3: IC50 curves for IMP-1 inhibition time courses. Residual activities were calculated from the
initial rate of FC5 hydrolysis after incubation of the enzyme with the inhibitor for 10 minutes.

[3] = molecular target: T2, BcII (Bacillus cereus, UniProt P04190); experiment: biochemical; conditions: for remaining activity at 100 µM: read-out: % Residual activity versus BcII
T2 construct: made in house
T2 sequence (P04190 31-257): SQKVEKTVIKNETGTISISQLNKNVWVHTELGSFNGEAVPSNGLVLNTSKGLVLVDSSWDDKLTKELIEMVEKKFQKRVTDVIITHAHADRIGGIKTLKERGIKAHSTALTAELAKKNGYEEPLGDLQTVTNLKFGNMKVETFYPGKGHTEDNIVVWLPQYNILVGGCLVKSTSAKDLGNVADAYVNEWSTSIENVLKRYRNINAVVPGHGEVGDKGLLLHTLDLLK
Protocol: as §1, §2
Figure S2: IC50 curves for BcII inhibition time courses. Residual activities were calculated from the initial
rate of FC5 hydrolysis after incubation of the enzyme with the inhibitor for 10 minutes. […]

[4] = molecular target: T3, VIM-2 (Escherichia coli, UniProt Q5U7L7); experiment: biochemical; conditions: for remaining activity at 100 µM: read-out: % Residual activity versus VIM-2
T3 construct: made in house
Protocol: as §1
as §2, with “ions. We also screened the inhibitors against a representative panel of SBLs from different classes (TEM-1, Temoneira β-lactamase-1, class A; CTX-M-15, cefotaxime hydrolysing β-lactamase from Munich 15, class A, extended spectrum β-lactamase (ESBL); AmpC E. coli, class C, and OXA-10, oxacillinase-10, class D).” for “ions.”
Figure S6: IC50 curves for VIM-2 inhibition time courses. Residual activities were calculated from the
as §3

[5] = molecular target: T4, NDM-1 (Klebsiella pneumoniae, UniProt C7C422); experiment: NDM-1 inhibition, fluorogenic cephalosporin (FC5) hydrolysis; assay type: biochemical; conditions: for remaining activity at 100 µM: read-out: % Residual activity versus NDM-1
T4 construct: made in house
T4 sequence (C7C422 29-270, looked up, species assumed): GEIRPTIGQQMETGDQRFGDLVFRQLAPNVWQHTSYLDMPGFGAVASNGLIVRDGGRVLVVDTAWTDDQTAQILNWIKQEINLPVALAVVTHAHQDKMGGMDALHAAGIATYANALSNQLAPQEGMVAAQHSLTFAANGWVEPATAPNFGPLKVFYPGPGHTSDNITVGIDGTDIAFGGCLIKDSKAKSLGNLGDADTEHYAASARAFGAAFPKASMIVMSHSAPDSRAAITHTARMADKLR
Protocol: as §1, §2
Figure S4: IC50 curves for NDM-1 inhibition time courses. Residual activities were calculated from the
as §3

[6] = molecular target: T5, CphA (Aeromonas hydrophila, UniProt P26918); experiment: CphA (subclass B2 MBL) inhibition; assay type: biochemical
T5 construct: made in house
T5 sequence (P26918 28-254): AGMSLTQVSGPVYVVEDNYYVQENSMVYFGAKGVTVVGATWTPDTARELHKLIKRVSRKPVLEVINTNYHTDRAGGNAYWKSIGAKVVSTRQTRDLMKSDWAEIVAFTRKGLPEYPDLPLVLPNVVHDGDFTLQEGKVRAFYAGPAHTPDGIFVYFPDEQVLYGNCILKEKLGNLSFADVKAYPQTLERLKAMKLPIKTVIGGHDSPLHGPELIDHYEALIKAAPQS
Protocol: as §1
as §2, with “ions. We also screened the inhibitors against a representative panel of SBLs from different classes (TEM-1, Temoneira β-lactamase-1, class A; CTX-M-15, cefotaxime hydrolysing β-lactamase from Munich 15, class A, extended spectrum β-lactamase (ESBL); AmpC E. coli, class C, and OXA-10, oxacillinase-10, class D).” for “ions.”

[7] = tested on: MBLs (SPM-1, IMP-1, BcII, VIM-2, NDM-1); assay type: biochemical; conditions: for MBL inhibition, result in words: at 100 µM
Protocol: as §1
as §2, with “ions. We also screened the inhibitors against a representative panel of SBLs from different classes (TEM-1, Temoneira β-lactamase-1, class A; CTX-M-15, cefotaxime hydrolysing β-lactamase from Munich 15, class A, extended spectrum β-lactamase (ESBL); AmpC E. coli, class C, and OXA-10, oxacillinase-10, class D).” for “ions.”

[8] = enethiols 6 assayed as sodium salts, 10 min incubation, read-out: IC50 SPM-1 (converted)
[9] = enethiols 6 assayed as sodium salts, 10 min incubation, read-out: IC50 IMP-1 (converted)
[10] = enethiols 6 assayed as sodium salts, 10 min incubation, read-out: IC50 BcII (converted)
[11] = enethiols 6 assayed as sodium salts, 10 min incubation, read-out: IC50 VIM-2 (converted)
[12] = enethiols 6 assayed as sodium salts, 10 min incubation, read-out: IC50 NDM-1
[13] = Table 2, read-out: IC50 versus BcII
[14] = Table 2, read-out: IC50 versus CphA
[15] = Table 2, read-out: IC50 versus SPM-1

SMILES: O=C(O)/C(S)=C/c1c(Cl)ccc(Cl)c1Cl [ML302F, reference compound]
- IC50 [1, 8]: 0.02 µM
- IC50 [2, 9]: 0.02 µM
- IC50 [3, 10]: 0.08 µM
- IC50 [4, 11]: 0.04 µM
- IC50 [5, 12]: 2.4 µM
- IC50 ([6]; read-out: IC50 CphA): 0.2 ± 0.004 µM

SMILES: O=P(O)(O)C(O)c1ccc(Br)cc1F (centres unmarked) [Compound 22]
- remaining activity at 100 µM [1]: 92 ± 5%
- remaining activity at 100 µM [2]: 100%
- remaining activity at 100 µM [3]: 98 ± 2%
- remaining activity at 100 µM [4]: 100%
- remaining activity at 100 µM [5]: 100%
- MBL inhibition, result in words [7]: inactive

SMILES: O=C(O)/C(S)=C/c1ccccc1 [Compound 6a]
- IC50 [1, 8]: 0.3 µM
- IC50 [2, 9]: 0.3 µM
- IC50 [3, 13]: 0.7 ± 0.2 µM
- IC50 [3, 10]: 0.7 µM
- IC50 [4, 11]: 0.4 µM
- IC50 [5, 12]: 7.9 µM
- IC50 [6, 14]: 2.1 ± 0.02 µM

SMILES: O=C(O)C(S)c1ccccc1 (centres unmarked) [Compound 13a]
- IC50 [1, 15]: 0.05 ± 0.001 µM
- IC50 [2]: 0.07 ± 0.003 µM
- IC50 ([3]; read-out: IC50 versus BcII): 0.1 µM
- IC50 [4]: 0.04 ± 0.001 µM
- IC50 [5]: 12.9 ± 1 µM
- IC50 [6, 14]: 71 ± 1 µM

SMILES: O=C(O)/C(S)=C/c1cccc(Cl)c1Cl [Compound 6n]
- IC50 [1, 8]: 0.2 µM
- IC50 [2, 9]: 1 µM
- IC50 [3, 10]: 1 µM
- IC50 [4, 11]: 1.3 µM
- IC50 [5, 12]: 46.5 µM
- IC50 ([7]; lower end of the range, read-out: IC50 values from (lowest across the MBL panel)): 0.2 µM

SMILES: O=C(O)C(S)Cc1ccccc1 (centres unmarked) [Compound 13b]
- IC50 [1, 15]: 0.07 ± 0.001 µM
- IC50 ([2]; Table 2, read-out: IC50 versus IMP-1): 0.05 ± 0.002 µM
- IC50 [3, 13]: 1.4 ± 0.3 µM
- IC50 ([4]; Table 2, read-out: IC50 versus VIM-2): 0.07 ± 0.002 µM
- IC50 ([5]; Table 2, read-out: IC50 versus NDM-1): 38.7 ± 4.7 µM
- IC50 [6, 14]: 130 ± 10 µM

SMILES: CN1CCN(NC(=O)CN2C(=O)/C(=C/c3ccccc3)SC2=S)CC1 [Compound 5a]
- IC50 [1, 8]: > 50 µM
- IC50 [2, 9]: 22.7 µM
- IC50 [3, 10]: > 50 µM
- IC50 [4, 11]: 16.4 µM
- IC50 [5, 12]: 26.7 µM
- IC50 [6]: > 50 µM

SMILES: CN1CCN(NC(=O)CN2C(=O)/C(=C/c3c(F)cccc3Cl)SC2=S)CC1 [Compound 5j]
- IC50 [1, 8]: 0.1 µM
- IC50 [2, 9]: 0.3 µM
- IC50 [3, 10]: 2 µM
- IC50 [4, 11]: 0.8 µM
- IC50 [5, 12]: > 50 µM

SMILES: CN1CCN(NC(=O)CN2C(=O)/C(=C/c3ccccc3F)SC2=S)CC1 [Compound 5f]
- IC50 [1, 8]: 42.7 µM
- IC50 [2, 9]: 22.6 µM
- IC50 [3, 10]: 26.3 µM
- IC50 [4, 11]: 6.2 µM
- IC50 [5, 12]: > 50 µM

SMILES: O=P(O)(O)C(S)c1ccc(Br)cc1F (centres unmarked) [Compound 26]
- remaining activity at 100 µM [1]: 95 ± 6%
- remaining activity at 100 µM [2]: 100%
- remaining activity at 100 µM [3]: 100%
- remaining activity at 100 µM [4]: 100%
- remaining activity at 100 µM [5]: 96 ± 3%
- MBL inhibition, result in words [7]: inactive

SMILES: O=C(O)CN1C(=O)/C(=C/c2ccccc2Cl)SC1=S [Compound 3g]
- IC50 [1, 8]: 25.1 ± 1.5 µM
- IC50 [2, 9]: 43.2 ± 2.1 µM
- IC50 [3, 10]: > 50 µM
- IC50 [4, 11]: 6.7 ± 0.2 µM
- IC50 [5, 12]: > 50 µM

SMILES: Cc1ccc(/C=C2\SC(=S)N(CC(=O)NN3CCN(C)CC3)C2=O)cc1 [Compound 5b]
- IC50 [1, 8]: > 50 µM
- IC50 [2, 9]: > 50 µM
- IC50 [3, 10]: > 50 µM
- IC50 [4, 11]: > 50 µM
- IC50 [5, 12]: 28 µM

SMILES: O=C(O)CN1C(=O)/C(=C/c2ccc(Br)cc2)SC1=S [Compound 3d]
- IC50 [1, 8]: 39.7 ± 0.8 µM
- IC50 [2, 9]: > 50 µM
- IC50 [3, 10]: > 50 µM
- IC50 [4, 11]: > 50 µM
- IC50 [5, 12]: > 50 µM
